According to the NIST ThermoML archive (doi:10.1021/je060271a):

Conditions: Liquid, Vibrating tube method

CCCCC(=O)OCC(COC(=O)CCCC)(COC(=O)CCCC)COC(=O)CCCC [pentaerythritol tetrapentanoate]
Conditions	mass density [kg/m3]
303.15 K, 29848 kPa	1028.9
303.15 K, 29879 kPa	1028.8
303.15 K, 29916 kPa	1029
303.15 K, 29948 kPa	1028.9
303.15 K, 29979 kPa	1029
303.15 K, 30016 kPa	1028.9
303.15 K, 30047 kPa	1028.9
303.15 K, 30079 kPa	1029
303.15 K, 30118 kPa	1029
303.15 K, 30150 kPa	1029.1
303.15 K, 30185 kPa	1029
303.15 K, 30217 kPa	1029
303.15 K, 30249 kPa	1029.1
303.15 K, 30286 kPa	1029
303.15 K, 30319 kPa	1029.1
303.15 K, 30352 kPa	1029.1
303.15 K, 30390 kPa	1029
303.15 K, 30423 kPa	1029.2
303.15 K, 30461 kPa	1029.1
303.15 K, 30493 kPa	1029.2
303.15 K, 30526 kPa	1029.2
303.15 K, 30566 kPa	1029.2
303.15 K, 30598 kPa	1029.2
303.15 K, 30631 kPa	1029.2
303.15 K, 30665 kPa	1029.4
303.15 K, 30705 kPa	1029.3
303.15 K, 30738 kPa	1029.3
303.15 K, 30777 kPa	1029.3
303.15 K, 30810 kPa	1029.3
303.15 K, 30844 kPa	1029.4
303.15 K, 30884 kPa	1029.4
303.15 K, 30917 kPa	1029.4
303.15 K, 30951 kPa	1029.4
303.15 K, 30991 kPa	1029.5
303.15 K, 31025 kPa	1029.5
303.15 K, 31060 kPa	1029.6
303.15 K, 31101 kPa	1029.5
303.15 K, 31135 kPa	1029.5
303.15 K, 31170 kPa	1029.5
303.15 K, 31204 kPa	1029.6
303.15 K, 31246 kPa	1029.7
303.15 K, 31280 kPa	1029.5
303.15 K, 31315 kPa	1029.6
303.15 K, 31350 kPa	1029.6
303.15 K, 31392 kPa	1029.7
303.15 K, 31427 kPa	1029.7
303.15 K, 31462 kPa	1029.8
303.15 K, 31504 kPa	1029.8
303.15 K, 31540 kPa	1029.7
303.15 K, 31576 kPa	1029.8
303.15 K, 31610 kPa	1029.8
303.15 K, 31653 kPa	1029.9
303.15 K, 31688 kPa	1029.9
303.15 K, 31731 kPa	1029.9
303.15 K, 31767 kPa	1029.8
303.15 K, 31803 kPa	1029.9
303.15 K, 31846 kPa	1030
303.15 K, 31882 kPa	1030
303.15 K, 31918 kPa	1029.9
303.15 K, 31954 kPa	1030
303.15 K, 31996 kPa	1030
303.15 K, 32033 kPa	1030
303.15 K, 32078 kPa	1030.1
303.15 K, 32115 kPa	1030.2
303.15 K, 32152 kPa	1030.1
303.15 K, 32188 kPa	1030.1
303.15 K, 32232 kPa	1030.1
303.15 K, 32269 kPa	1030.2
303.15 K, 32306 kPa	1030.2
303.15 K, 32351 kPa	1030.4
303.15 K, 32387 kPa	1030.3
303.15 K, 32432 kPa	1030.3
303.15 K, 32470 kPa	1030.3
303.15 K, 32507 kPa	1030.3
303.15 K, 32544 kPa	1030.2
303.15 K, 32590 kPa	1030.4
303.15 K, 32628 kPa	1030.3
303.15 K, 32667 kPa	1030.6
303.15 K, 32714 kPa	1030.4
303.15 K, 32752 kPa	1030.4
303.15 K, 32798 kPa	1030.6
303.15 K, 32838 kPa	1030.5
303.15 K, 32877 kPa	1030.5
303.15 K, 32926 kPa	1030.5
303.15 K, 32968 kPa	1030.5
303.15 K, 33012 kPa	1030.6
303.15 K, 33064 kPa	1030.6
303.15 K, 33109 kPa	1030.6
303.15 K, 33144 kPa	1030.7
303.15 K, 33166 kPa	1030.7
303.15 K, 33187 kPa	1030.7
303.15 K, 33214 kPa	1030.8
303.15 K, 33237 kPa	1030.6
303.15 K, 33258 kPa	1030.7
303.15 K, 33284 kPa	1030.8
303.15 K, 33307 kPa	1030.8
303.15 K, 33354 kPa	1030.8
303.15 K, 33377 kPa	1030.7
303.15 K, 33404 kPa	1030.7
303.15 K, 33423 kPa	1030.9
303.15 K, 33449 kPa	1030.8
303.15 K, 33472 kPa	1030.7
303.15 K, 33494 kPa	1030.9
303.15 K, 33521 kPa	1030.8
303.15 K, 33544 kPa	1030.8
303.15 K, 33594 kPa	1030.9
303.15 K, 33616 kPa	1030.9
303.15 K, 33643 kPa	1031
303.15 K, 33666 kPa	1031
303.15 K, 33687 kPa	1031
303.15 K, 33715 kPa	1030.9
303.15 K, 33740 kPa	1031
303.15 K, 33763 kPa	1031
303.15 K, 33790 kPa	1031.1
303.15 K, 33813 kPa	1031
303.15 K, 33836 kPa	1031
303.15 K, 33862 kPa	1031
303.15 K, 33886 kPa	1031.1
303.15 K, 33911 kPa	1031
303.15 K, 33938 kPa	1031.1
303.15 K, 33963 kPa	1031
303.15 K, 33987 kPa	1031.2
303.15 K, 34014 kPa	1031.2
303.15 K, 34041 kPa	1031.1
303.15 K, 34066 kPa	1031.2
303.15 K, 34091 kPa	1031.2
303.15 K, 34122 kPa	1031.2
303.15 K, 34148 kPa	1031.3
303.15 K, 34176 kPa	1031.2
303.15 K, 34209 kPa	1031.1
303.15 K, 34236 kPa	1031.2
303.15 K, 34272 kPa	1031.3
303.15 K, 34293 kPa	1031.3
303.15 K, 34298 kPa	1031.3
303.15 K, 34306 kPa	1031.3
303.15 K, 34335 kPa	1031.4
303.15 K, 34345 kPa	1031.4
303.15 K, 34355 kPa	1031.4
303.15 K, 34361 kPa	1031.3
303.15 K, 34369 kPa	1031.2
303.15 K, 34375 kPa	1031.4
303.15 K, 34382 kPa	1031.4
303.15 K, 34388 kPa	1031.3
303.16 K, 663.45 kPa	1011.3
303.16 K, 665.18 kPa	1011.4
303.16 K, 666.06 kPa	1011.3
303.16 K, 670.92 kPa	1011.3
303.16 K, 671.95 kPa	1011.3
303.16 K, 672.66 kPa	1011.2
303.16 K, 673.71 kPa	1011.2
303.16 K, 674.57 kPa	1011.2
303.16 K, 683.79 kPa	1011.3
303.16 K, 684.84 kPa	1011.3
303.16 K, 687.26 kPa	1011.2
303.16 K, 700.64 kPa	1011.3
303.16 K, 702.03 kPa	1011.2
303.16 K, 702.73 kPa	1011.4
303.16 K, 732.61 kPa	1011.3
303.16 K, 790.98 kPa	1011.3
303.16 K, 792.36 kPa	1011.4
